Method: Aqueous solutions of the polymer of Example 5 having various concentrations were prepared, and the freezing point thereof was measured. The freezing point depression was measured with a light microscope with a temperature controller. Firstly, in order to remove any error in the measurement of freezing point due to supercooling, the whole system was previously frozen at −20° C., and then was carefully returned to 0° C. with attention not to dissolve completely the ice nucleus. Then, the system is gradually cooled with observing growth of ice crystal. The freezing point was deemed to be a point at which the growth of ice crystal was stopped and the whole system was frozen.

Olymer of L-Alanine-(β-D-galactopyranosyl)-(1→3)-(2-acetamido-2-deoxy-1-α-D-galactopyranosyl)-L-threonine-L-alanine [Example 5]
growth of ice crystal (aqueous solution, gradual cooling while observing ice crystal growth): inhibited the growth of ice crystal
freezing point depression activity (aqueous solutions of various concentrations, compared with literature data for natural origin AFGP, FIG. 1): almost the same freezing point depression activity as that of the natural origin AFGP
